Test results as given in patent publication US7396666B2, “Glycosyltransferase, nucleic acid encoding the glycosyltransferase and method of testing canceration using the nucleic acid” (National Institute of Advanced Industrial Science and …, priority 2002, dated 2008).
“Also recorded” adds a separate entry of the source. Like-named read-outs stand apart in the source and are kept apart here. One block for each molecule: values may come before it.

Columns and labels:
Assay type in all cases: biochemical
G9 polypeptide [1] = biological target: T1, G9 polypeptide (Homo sapiens, UniProt Q7Z7M8); test: β1,3-N-acetylglucosaminyltransferase activity with synthetic mono-/oligosaccharide acceptor substrates ([14C]UDP-GlcNAc donor, scintillation counting); details: for transferring activity for acceptor substrate (in words): GlcNAc transfer by G9 to synthetic acceptor substrates; for Relative activity: Substrate specificity of G9, 10 μM acceptor substrate, UDP-GlcNAc donor, 37° C., usually 16 hours, ND = not detected
T1 construct: made in house
T1 sequence (Q7Z7M8 26-397): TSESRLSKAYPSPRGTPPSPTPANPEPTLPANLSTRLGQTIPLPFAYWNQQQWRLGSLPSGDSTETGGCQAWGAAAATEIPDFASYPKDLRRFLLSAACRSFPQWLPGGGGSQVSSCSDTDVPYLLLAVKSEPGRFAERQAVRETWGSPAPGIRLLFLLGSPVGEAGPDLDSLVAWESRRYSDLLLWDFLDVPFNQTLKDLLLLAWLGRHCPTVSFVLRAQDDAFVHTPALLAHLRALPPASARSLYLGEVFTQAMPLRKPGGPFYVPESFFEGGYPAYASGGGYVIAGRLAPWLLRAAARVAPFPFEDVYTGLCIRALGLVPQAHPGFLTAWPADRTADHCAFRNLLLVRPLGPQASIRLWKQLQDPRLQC
Procedure: The FLAG peptide-fused G9 polypeptide obtained in the example above was measured for a β1,3-N-acetylglucosaminyltransferase activity with monosaccharaide/oligosaccharide/glycolipid/glycoprotein as substrates according to known methods (e.g., the above-described references and FEBS, 462, 289 (1999), J. Biol. Chem. 269, 14730-14737 (1994), J. Biol. Chem., 267, 23507 (1992), and J. Biol. Chem., 267, 2994 (1992)).
pNp-α-Glc, pNp-β-Glc, pNp-α-GlcNAc, pNp-β-GlcNAc, pNp-α-Gal, oNp-β-Gal, pNp-α-GalNAc, pNp-α-Xyl, oNp-β-Xyl, pNp-α-Fuc, Bz-α-Man, Bz-α-ManNAc, core1-α-pNp, core3-α-pNp, Bz-β-lactoside, GlcNAcβ1-4GlcNAcβ-Bz, and Galβ1-4GlcNAcα-pNp were used as acceptor substrates (see Table 5). These substrates can be purchased from, for example, Sigma Corp. or Toronto Research Chemicals Inc.
A basic reaction solution in the case of using a radiolabeled substrate as the donor substrate comprises 20 μl in total of 14 mM HEPES buffer (pH 7.4), 10 mM MnCl2, 0.15% Triton CF-54, 0.75 mM ATP, 50 μM UDP-GlcNAc (manufactured by Sigma), 4.5 μM (50 nCi) [^14C]UDP-GlcNAc (manufactured by Amersham Biosciences), 10 μM substrate (each of the above-described acceptor substrates), and an appropriate amount (5 to 10 μl) of the purified enzyme protein (enzyme source obtained in Example 4). Enzyme reaction was carried out at 37° C. for several hours up to 16 hours (usually for 16 hours).
After the completion of reaction, the resulting solution was supplemented with 200 μl of 0.1M KCl and lightly centrifuged, and then a supernatant was obtained. After being washed once with 10 ml of methanol, the supernatant was loaded onto Sep-Pak C18 Cartridge (Waters) equilibrated by two-time washing with 10 ml of 0.1 M KCl, and the substrate and a product in the supernatant were adsorbed in the cartridge. After the cartridge was washed twice with 1 ml of pure water for HPLC, the adsorbed substrate and product were eluted with 1 ml of methanol. Following the mixing with a liquid scintillator (ACSII; manufactured by Amersham Biosciences), the amount of radiation from the product was measured with a scintillation counter.

G9 polypeptide [2] = biological target: T1, G9 polypeptide; test: Divalent metal ion requirement of G9 enzyme activity
G9 polypeptide [3] = biological target: T1, G9 polypeptide; test: Activity measurement with glycoproteins as acceptor substrates (SDS-PAGE, autoradiography, glycopeptidase F digestion); details: 40 μg acceptor glycoprotein, 37° C., FIG. 4
Procedure: Enzyme reaction was carried out with glycoproteins as substrates. A reaction solution comprised 20 μl in total of 14 mM HEPES buffer (pH 7.4), 10 mM MnCl2, 0.15% Triton CF-54, 0.75 mM ATP, 50 μM UDP-GlcNAc (manufactured by Sigma), 4.5 μM (50 nCi) [^14C]UDP-GlcNAc (manufactured by Amersham Biosciences), 40 μg of an acceptor substrate, and an appropriate amount (5 to 10 μl) of a purified enzyme protein. A αl-acid glycoprotein (orosomucoid; manufactured by Sigma), ovalbumin (manufactured by Sigma), or ovomucoid (manufactured by Sigma) was used as the above described acceptor substrate. The enzyme purified with the anti-FLAG M1 antibody affinity gel in Example 4 was used as the above-described purified enzyme protein.
Reaction was carried out at 37° C. for several hours up to 16 hours. A portion of a reaction product was subjected to enzyme digestion with glycopeptidase F (GPF; manufactured by TAKARA) according to the instruction. The samples both before and after enzyme digestion were analyzed by 10% SDS-PAGE (see FIG. 4).

G9 polypeptide [4] = biological target: T1, G9 polypeptide; test: Buffer and pH dependence of G9 enzyme activity
Procedure: Buffer conditions were investigated using the same reaction solution and reaction time as above but using HEPES (pH 6.75 to 7.4) and sodium cacodylate (pH 6.4 to 7.2) instead of 14 mM HEPES buffer (pH7.4) (see FIG. 2A).

[5] = metal ions at 2.5, 10 and 40 mM instead of 10 mM MnCl2, FIG. 2B

Molecule: CC(=O)N[C@H]1[C@@H](Oc2ccc([N+](=O)[O-])cc2)O[C@H](CO)[C@@H](O[C@@H]2O[C@H](CO)[C@H](O)[C@H](O)[C@H]2O)[C@@H]1O [Galβ1-4GlcNAcα-pNP]
- transferring activity for acceptor substrate (in words) (G9 polypeptide [1]): particularly strong activity; also recorded: highest transferring activity
- Relative activity (G9 polypeptide [1]): 100%

Molecule: [Cl][Cd][Cl] [Cd, CdCl2]
- effect of divalent metal ion on G9 activity (in words) (G9 polypeptide [2]; [5]): slight enhancing effect

Molecule: [Cl-].[Cl-].[Zn+2] [Zn, ZnCl2]
- effect of divalent metal ion on G9 activity (in words) (G9 polypeptide [2]; [5]): no enhancing effect is substantially observed

Molecule: [Cl][Ni][Cl] [Ni, NiCl2]
- effect of divalent metal ion on G9 activity (in words) (G9 polypeptide [2]; [5]): slight enhancing effect

Molecule: [Cl-].[Cl-].[Co+2] [Co ion, CoCl2]
- effect of divalent metal ion on G9 activity (in words) (G9 polypeptide [2]): significantly enhanced

Molecule: [Cl-].[Cl-].[Mg+2] [Mg, MgCl2]
- effect of divalent metal ion on G9 activity (in words) (G9 polypeptide [2]; [5]): no enhancing effect is substantially observed

B2: G9 polypeptide: novel human β1,3-N-acetyl-D-glucosaminyltransferase, FLAG peptide-fused, amino acids 26 to 397 of SEQ ID NO: 2 (SEQ ID NO: 16) (protein, listed as Homo sapiens)
chain: T1 sequence (Q7Z7M8 26-397)
modifications: FLAG peptide
- pH of maximum activity (G9 polypeptide [4]; HEPES buffer (pH 6.75 to 7.4), FIG. 2A): ~7.0
- pH dependence of activity (in words) (G9 polypeptide [4]; sodium cacodylate buffer, pH 6.4 to 7.2, FIG. 2A): rises with an increase in pH

More lines, main results first:

- effect of divalent metal ion on G9 activity (in words) (G9 polypeptide [2]; [5]): particularly remarkably enhanced
Molecule: [Cl][Mn][Cl] [Mn ion, MnCl2]

- Relative activity (G9 polypeptide [1]): 27%
Molecule: OC[C@H]1O[C@@H](O[C@H]2[C@H](O)[C@@H](O)[C@H](OCc3ccccc3)O[C@@H]2CO)[C@H](O)[C@@H](O)[C@H]1O [Lactoside β-Bz]
- transferring activity for acceptor substrate (in words) (G9 polypeptide [1]; listed as Bz-β-lactoside): significant activity; also recorded: a certain amount of transferring activity

- GlcNAc-transferring activity for glycoprotein acceptor substrate (in words) (G9 polypeptide [3]): relatively weak activity
B1: ovalbumin (protein, UniProt P01012 2-386, looked up)
Ovalbumin: GSIGAASMEFCFDVFKELKVHHANENIFYCPIAIMSALAMVYLGAKDSTRTQINKVVRFDKLPGFGDSIEAQCGTSVNVHSSLRDILNQITKPNDVYSFSLASRLYAEERYPILPEYLQCVKELYRGGLEPINFQTAADQARELINSWVESQTNGIIRNVLQPSSVDSQTAMVLVNAIVFKGLWEKAFKDEDTQAMPFRVTEQESKPVQMMYQIGLFRVASMASEKMKILELPFASGTMSMLVLLPDEVSGLEQLESIINFEKLTEWTSSNVMEERKIKVYLPRMKMEEKYNLTSVLMAMGITDVFSSSANLSGISSAESLKISQAVHAAHAEINEAGREVVGSAEAGVDAASVSEEFRADHPFLFCIKHIATNAVLFFGRCVSP
notes: glycoprotein acceptor substrate manufactured by Sigma
